Laboratory results published in patent publication US10131652B2, “Pyrimidinyloxy benzene derivatives as herbicides” (E. I. DU PONT DE NEMOURS AND COMPANY, priority 2014, dated 2018).

Tests used:
Type in all cases: in vivo
[1] = system: pigweed (Amaranthus retroflexus); test: Test D pre-/postemergence plant response; conditions: Postemergence; for Pigweed plant response rating: scale 0 to 100 (0 no effect, 100 complete control); for Plant response rating, Pigweed: scale 0 to 100, 0 no effect, 100 complete control
Summary of the method: (§1)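 Visual injury scoring (0–100) at 13 to 15 days in greenhouse. Preemergence sprays on seeded loam/sand; postemergence sprays on 1–4 leaf plants.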

corn (Zea mays) = test: Test D pre-/postemergence plant response; conditions: Postemergence; for Corn plant response rating: scale 0 to 100 (0 no effect, 100 complete control); for Plant response rating, Corn: scale 0 to 100, 0 no effect, 100 complete control
Summary of the method: as §1

[2] = system: Italian ryegrass (Lolium multiflorum); test: Test D pre-/postemergence plant response; conditions: Postemergence; for Ryegrass, Italian plant response rating: scale 0 to 100 (0 no effect, 100 complete control); for Plant response rating, Ryegrass, Italian: scale 0 to 100, 0 no effect, 100 complete control
Summary of the method: as §1

[3] = system: large (Lg) crabgrass (Digitaria sanguinalis); test: Test D pre-/postemergence plant response; conditions: Postemergence; for Crabgrass, Large plant response rating: scale 0 to 100 (0 no effect, 100 complete control); for Plant response rating, Crabgrass, Large: scale 0 to 100, 0 no effect, 100 complete control
Summary of the method: as §1

[4] = system: waterhemp (common waterhemp, Amaranthus rudis); test: Test D pre-/postemergence plant response; conditions: Postemergence; for Waterhemp plant response rating: scale 0 to 100 (0 no effect, 100 complete control); for Plant response rating, Waterhemp: scale 0 to 100, 0 no effect, 100 complete control
Summary of the method: as §1

[5] = system: lambsquarters (Chenopodium album); test: Test D pre-/postemergence plant response; conditions: Postemergence; for Lambsquarters plant response rating: scale 0 to 100 (0 no effect, 100 complete control); for Plant response rating, Lambsquarters: scale 0 to 100, 0 no effect, 100 complete control
Summary of the method: as §1

soybean (Glycine max) = test: Test D pre-/postemergence plant response; conditions: Postemergence; for Soybean plant response rating: scale 0 to 100 (0 no effect, 100 complete control); for Plant response rating, Soybean: scale 0 to 100, 0 no effect, 100 complete control
Summary of the method: as §1

[6] = system: blackgrass (Alopecurus myosuroides); test: Test D pre-/postemergence plant response; conditions: Postemergence; for Blackgrass plant response rating: scale 0 to 100 (0 no effect, 100 complete control); for Plant response rating, Blackgrass: scale 0 to 100, 0 no effect, 100 complete control
Summary of the method: as §1

[7] = system: giant foxtail (Setaria faberii); test: Test D pre-/postemergence plant response; conditions: Postemergence; for Foxtail, Giant plant response rating: scale 0 to 100 (0 no effect, 100 complete control); for Plant response rating, Foxtail, Giant: scale 0 to 100, 0 no effect, 100 complete control
Summary of the method: as §1

[8] = system: barnyardgrass (Echinochloa crus-galli); test: Test D pre-/postemergence plant response; conditions: Postemergence; for Barnyardgrass plant response rating: scale 0 to 100 (0 no effect, 100 complete control); for Plant response rating, Barnyardgrass: scale 0 to 100, 0 no effect, 100 complete control
Summary of the method: as §1

[9] = system: velvetleaf (Abutilon theophrasti); test: Test D pre-/postemergence plant response; conditions: Postemergence; for Velvetleaf plant response rating: scale 0 to 100 (0 no effect, 100 complete control); for Plant response rating, Velvetleaf: scale 0 to 100, 0 no effect, 100 complete control
Summary of the method: as §1

[10] = system: morningglory (Ipomoea coccinea); test: Test D pre-/postemergence plant response; conditions: Postemergence; for Morningglory plant response rating: scale 0 to 100 (0 no effect, 100 complete control); for Plant response rating, Morningglory: scale 0 to 100, 0 no effect, 100 complete control
Summary of the method: as §1

[11] = system: Italian ryegrass (Lolium multiflorum); test: Test B pre-/postemergence plant response
Summary of the method: (§2)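 Seeds in loam–sand blend given preemergence soil spray; separately, plants at one- to two-leaf stage (2–10 cm) sprayed postemergence, compounds in non-phytotoxic solvent with surfactant. Injury rated visually versus untreated controls after ~10 days in greenhouse, 0 (no effect) to 100 (complete control).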

[12] = system: ragweed (common ragweed, Ambrosia elatior); test: Test B pre-/postemergence plant response
Summary of the method: as §2

kochia (Kochia scoparia) = test: Test B pre-/postemergence plant response
Summary of the method: as §2

[13] = 31 g ai/ha, Postemergence, 0 to 100 scale, 0 no effect, 100 complete control
[14] = 31 g ai/ha, Preemergence, 0 to 100 scale where 0 is no effect and 100 is complete control
[15] = 125 g ai/ha, postemergence, 0 to 100 scale, 0 no effect, 100 complete control
[16] = Preemergence, 125 g ai/ha, 0 to 100 scale where 0 is no effect and 100 is complete control
[17] = Preemergence, 31 g ai/ha, 0 to 100 scale (0 no effect, 100 complete control)

## FC(Cl)c1cc(-c2ccccc2Oc2ncc(Cl)cn2)no1 (stereo not shown) [Compound 116]
[1]; 16 g ai/ha
  Pigweed plant response rating: 75
[1]; 31 g ai/ha
  Pigweed plant response rating: 75
[1]; 62 g ai/ha
  Plant response rating, Pigweed: 90
[1]; 125 g ai/ha
  Plant response rating, Pigweed: 90
Corn (Zea mays); 16 g ai/ha
  Corn plant response rating: 5
Corn (Zea mays); 31 g ai/ha
  Corn plant response rating: 10
Corn (Zea mays); 62 g ai/ha
  Plant response rating, Corn: 5
Corn (Zea mays); 125 g ai/ha
  Plant response rating, Corn: 10
[2]; 16 g ai/ha
  Ryegrass, Italian plant response rating: 0
[2]; 31 g ai/ha
  Ryegrass, Italian plant response rating: 0
[2]; 62 g ai/ha
  Plant response rating, Ryegrass, Italian: 5
[2]; 125 g ai/ha
  Plant response rating, Ryegrass, Italian: 10
[3]; 16 g ai/ha
  Crabgrass, Large plant response rating: 5
[3]; 31 g ai/ha
  Crabgrass, Large plant response rating: 5
[3]; 62 g ai/ha
  Plant response rating, Crabgrass, Large: 25
[3]; 125 g ai/ha
  Plant response rating, Crabgrass, Large: 40
[4]; 16 g ai/ha
  Waterhemp plant response rating: 70
[4]; 31 g ai/ha
  Waterhemp plant response rating: 90
[4]; 62 g ai/ha
  Plant response rating, Waterhemp: 90
[4]; 125 g ai/ha
  Plant response rating, Waterhemp: 100
[5]; 16 g ai/ha
  Lambsquarters plant response rating: 40
[5]; 31 g ai/ha
  Lambsquarters plant response rating: 60
[5]; 62 g ai/ha
  Plant response rating, Lambsquarters: 80
[5]; 125 g ai/ha
  Plant response rating, Lambsquarters: 100
Soybean (Glycine max); 16 g ai/ha
  Soybean plant response rating: 40
Soybean (Glycine max); 31 g ai/ha
  Soybean plant response rating: 55
Soybean (Glycine max); 62 g ai/ha
  Plant response rating, Soybean: 30
Soybean (Glycine max); 125 g ai/ha
  Plant response rating, Soybean: 95
[6]; 16 g ai/ha
  Blackgrass plant response rating: 0
[6]; 31 g ai/ha
  Blackgrass plant response rating: 5
[6]; 62 g ai/ha
  Plant response rating, Blackgrass: 5
[6]; 125 g ai/ha
  Plant response rating, Blackgrass: 35
[7]; 16 g ai/ha
  Foxtail, Giant plant response rating: 5
[7]; 31 g ai/ha
  Foxtail, Giant plant response rating: 5
[7]; 62 g ai/ha
  Plant response rating, Foxtail, Giant: 10
[7]; 125 g ai/ha
  Plant response rating, Foxtail, Giant: 60
[8]; 16 g ai/ha
  Barnyardgrass plant response rating: 5
[8]; 31 g ai/ha
  Barnyardgrass plant response rating: 5
[8]; 62 g ai/ha
  Plant response rating, Barnyardgrass: 20
[8]; 125 g ai/ha
  Plant response rating, Barnyardgrass: 30
[9]; 16 g ai/ha
  Velvetleaf plant response rating: 55
[9]; 31 g ai/ha
  Velvetleaf plant response rating: 65
[9]; 62 g ai/ha
  Plant response rating, Velvetleaf: 70
[9]; 125 g ai/ha
  Plant response rating, Velvetleaf: 75
[10]; 16 g ai/ha
  Morningglory plant response rating: 15
[10]; 31 g ai/ha
  Morningglory plant response rating: 10
[10]; 62 g ai/ha
  Plant response rating, Morningglory: 10
[10]; 125 g ai/ha
  Plant response rating, Morningglory: 30
[11]; [13]
  Plant response rating, Ryegrass, Italian: 0
[11]; [14]
  Plant response rating, Ryegrass, Italian: 0
[11]; [15]
  Plant response rating, Ryegrass, Italian: 30
[12]; [13]
  Plant response rating, Ragweed: 20
[12]; [14]
  Plant response rating, Ragweed: 0
[12]; [15]
  Plant response rating, Ragweed: 40
Kochia (Kochia scoparia); [13]
  Plant response rating, Kochia: 90
Kochia (Kochia scoparia); [14]
  Plant response rating, Kochia: 60
Kochia (Kochia scoparia); [15]
  Plant response rating, Kochia: 90
Kochia (Kochia scoparia); [16]
  Plant response rating, Kochia: 60

## Fc1ccc(Oc2ncc(Cl)cn2)c(-c2cc(C(F)F)on2)c1Cl [Compound 96]
[1]; 16 g ai/ha
  Pigweed plant response rating: 98
[1]; 31 g ai/ha
  Pigweed plant response rating: 95
[1]; 62 g ai/ha
  Plant response rating, Pigweed: 98
[1]; 125 g ai/ha
  Plant response rating, Pigweed: 98
Corn (Zea mays); 16 g ai/ha
  Corn plant response rating: 5
Corn (Zea mays); 31 g ai/ha
  Corn plant response rating: 15
Corn (Zea mays); 62 g ai/ha
  Plant response rating, Corn: 5
Corn (Zea mays); 125 g ai/ha
  Plant response rating, Corn: 5
[2]; 16 g ai/ha
  Ryegrass, Italian plant response rating: 0
[2]; 31 g ai/ha
  Ryegrass, Italian plant response rating: 5
[2]; 62 g ai/ha
  Plant response rating, Ryegrass, Italian: 10
[2]; 125 g ai/ha
  Plant response rating, Ryegrass, Italian: 10
[3]; 16 g ai/ha
  Crabgrass, Large plant response rating: 5
[3]; 31 g ai/ha
  Crabgrass, Large plant response rating: 5
[3]; 62 g ai/ha
  Plant response rating, Crabgrass, Large: 5
[3]; 125 g ai/ha
  Plant response rating, Crabgrass, Large: 10
[4]; 16 g ai/ha
  Waterhemp plant response rating: 85
[4]; 31 g ai/ha
  Waterhemp plant response rating: 95
[4]; 62 g ai/ha
  Plant response rating, Waterhemp: 98
[4]; 125 g ai/ha
  Plant response rating, Waterhemp: 100
[5]; 16 g ai/ha
  Lambsquarters plant response rating: 65
[5]; 31 g ai/ha
  Lambsquarters plant response rating: 65
[5]; 62 g ai/ha
  Plant response rating, Lambsquarters: 90
[5]; 125 g ai/ha
  Plant response rating, Lambsquarters: 95
Soybean (Glycine max); 16 g ai/ha
  Soybean plant response rating: 15
Soybean (Glycine max); 31 g ai/ha
  Soybean plant response rating: 50
Soybean (Glycine max); 62 g ai/ha
  Plant response rating, Soybean: 55
Soybean (Glycine max); 125 g ai/ha
  Plant response rating, Soybean: 35
[6]; 16 g ai/ha
  Blackgrass plant response rating: 0
[6]; 31 g ai/ha
  Blackgrass plant response rating: 10
[6]; 62 g ai/ha
  Plant response rating, Blackgrass: 10
[6]; 125 g ai/ha
  Plant response rating, Blackgrass: 20
[7]; 16 g ai/ha
  Foxtail, Giant plant response rating: 0
[7]; 31 g ai/ha
  Foxtail, Giant plant response rating: 5
[7]; 62 g ai/ha
  Plant response rating, Foxtail, Giant: 10
[7]; 125 g ai/ha
  Plant response rating, Foxtail, Giant: 10
[8]; 16 g ai/ha
  Barnyardgrass plant response rating: 0
[8]; 31 g ai/ha
  Barnyardgrass plant response rating: 0
[8]; 62 g ai/ha
  Plant response rating, Barnyardgrass: 5
[8]; 125 g ai/ha
  Plant response rating, Barnyardgrass: 5
[9]; 16 g ai/ha
  Velvetleaf plant response rating: 20
[9]; 31 g ai/ha
  Velvetleaf plant response rating: 35
[9]; 62 g ai/ha
  Plant response rating, Velvetleaf: 35
[9]; 125 g ai/ha
  Plant response rating, Velvetleaf: 35
[10]; 16 g ai/ha
  Morningglory plant response rating: 85
[10]; 31 g ai/ha
  Morningglory plant response rating: 40
[10]; 62 g ai/ha
  Plant response rating, Morningglory: 40
[10]; 125 g ai/ha
  Plant response rating, Morningglory: 30
[11]; [13]
  Plant response rating, Ryegrass, Italian: 30
[11]; [15]
  Plant response rating, Ryegrass, Italian: 60
[11]; [17]
  Ryegrass, Italian plant response rating: 0
[11]; [16]
  Plant response rating, Ryegrass, Italian: 0
[12]; [13]
  Plant response rating, Ragweed: 50
[12]; [15]
  Plant response rating, Ragweed: 60
[12]; [17]
  Ragweed plant response rating: 0
[12]; [16]
  Plant response rating, Ragweed: 0
Kochia (Kochia scoparia); [13]
  Plant response rating, Kochia: 70
Kochia (Kochia scoparia); [15]
  Plant response rating, Kochia: 100
Kochia (Kochia scoparia); [17]
  Kochia plant response rating: 50
Kochia (Kochia scoparia); [16]
  Plant response rating, Kochia: 70
